# Values of other authors, collected in US20220031669A1, “Compositions for Broad Spectrum Topical Antimicrobials” (priority 2020, published 2022).
# Details: thiol group of acetylcysteine
smiles,measurement,value
CC(=O)N[C@@H](CS)C(=O)O [acetylcysteine],pKa of SH,9.4
